The source of these data is article PMC5598403 (Toxicology Reports, 2014).

The target of this test is CK2α (protein kinase CK2 catalytic subunit α) (Homo sapiens, UniProt P68400). As to the kind of experiment: radiometric [γ-32P]ATP kinase assay with synthetic peptide RRRADDSDDDDD
Format: biochemical.

CK2α (protein kinase CK2 catalytic subunit α), sequence (P68400 whole entry): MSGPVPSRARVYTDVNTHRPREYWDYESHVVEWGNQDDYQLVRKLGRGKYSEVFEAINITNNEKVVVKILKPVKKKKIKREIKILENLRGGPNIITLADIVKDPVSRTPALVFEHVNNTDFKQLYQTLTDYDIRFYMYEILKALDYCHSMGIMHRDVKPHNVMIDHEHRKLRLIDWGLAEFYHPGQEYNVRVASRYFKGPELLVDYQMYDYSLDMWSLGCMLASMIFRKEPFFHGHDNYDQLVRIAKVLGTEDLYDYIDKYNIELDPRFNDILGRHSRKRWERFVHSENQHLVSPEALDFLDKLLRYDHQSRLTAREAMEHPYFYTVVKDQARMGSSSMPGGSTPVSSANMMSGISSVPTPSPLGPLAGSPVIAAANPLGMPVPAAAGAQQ

In the case of `Oc1c(Cl)c(Cl)c(Cl)c(Cl)c1Cl` [PCP, pentachlorophenol], half-maximal inhibition (IC50) was put at 3.73 µM.
